Reference: patent publication US9221868B2, “Uridine di- or tri-phosphate derivatives and uses thereof” (BAR-ILAN UNIVERSITY, priority 2010, dated 2015)

How the values were obtained:
P2Y4-R = target: T1, P2Y4-R (Homo sapiens, UniProt P51582); test: [Ca2+]i increase in 1321N1 astrocytoma cells expressing P2Y4-R; type: cell-based; conditions: n.d.r = no detectable response up to 100 μM
T1 construct: expressed in transfected cells; host or cells: 1321N1 astrocytoma cells
Description: (§1) Green fluorescent protein (GFP) constructs of human P2Y2-R, P2Y4-R and P2Y6-R were expressed in 1321N1 astrocytoma cells, which lack endogenous expression of P2X- and P2Y-receptors. The respective cDNA of the receptor gene was cloned into a pEGFPN1 vector. After transfection using FuGENE 6 Transfection Reagent (Roche Molecular Biochemicals, Mannheim, Germany), the cells were selected with 0.5 mg/ml G418 (geneticine; Merck Chemicals, Darmstadt, Germany) and grown in Dulbecco's modified Eagles' medium (DMEM) supplemented with 10% fetal calf serum, 100 U/ml penicillin and […] at 37° C. and 5% CO2. The expression and cell membrane localization of the respective P2Y receptors was confirmed through the analysis of the GFP fluorescence. The functionality of the expressed GFP-labeled receptor in cells was verified by recording a change of [Ca^2+]i after stimulation with the appropriate receptor agonist.
(§2) 1321N1 astrocytoma cells transfected with the respective plasmid for P2YR-GFP expression plated on coverslips (22 mm diameter) and grown to approximately 80% density were incubated with 2 μM fura 2/AM and 0.02% pluronic acid in Na-HBS buffer (Hepes buffered saline: 145 mM NaCl, 5.4 mM KCl, 1.8 mM CaCl2, 1 mM MgCl2, 25 mM glucose, 20 mM Hepes/Tris pH 7.4) for 30 min at 37° C. The cells were superfused (1 ml/min, 37° C.) with different concentrations of nucleotide in Na-HBS buffer, and the nucleotide-induced change of [Ca^2+]i was measured by detecting the respective emission intensity of fura 2/AM at 510 nm with after 340 nm and 380 nm excitations (Ubl et al., 1998). The average maximal amplitude of the responses and the respective standard errors were calculated from the ratio of the fura 2/AM fluorescence intensities with excitations at 340 nm and 380 nm (only MT-labeled cells were analysed). Microsoft Excel (Microsoft Corp., Redmond, Wash., USA) and SigmaPlot (SPSS Inc., Chicago, Ill., USA) were used to derive the concentration-response curves and EC50 values from the average response amplitudes obtained in at least three independent experiments (Ecke et al., 2006, 2008). Only cells with a clear MT-signal and with the typical calcium response kinetics upon agonist pulse application were included in the data analysis. The GFP-tagged P2Y receptors are suitable for pharmacological and physiological studies, as previously reported (Tulapurkar et al., 2004, 2006; Zylberg et al., 2007).
(§3) In this study, analogues 13-17 were tested for their potency and selectivity at P2Y2,4,6-receptors based on measurements of increases in intracellular calcium concentrations in 1321N1 astrocytoma cells transfected with the respective plasmid, as described in Materials and Methods, and the results are summarized in Table 2.

P2Y2-R = P2Y2-R (Homo sapiens, UniProt P41231); test: [Ca2+]i increase in 1321N1 astrocytoma cells expressing P2Y2-R; type: cell-based; parameters: expressed in transfected cells; host or cells: 1321N1 astrocytoma cells; conditions: 1321N1 astrocytoma cells, [Ca2+]i; n.d.r = no detectable response up to 100 μM
Description: as §1, §2, §3

Chain of P2Y2-R (P41231 whole entry): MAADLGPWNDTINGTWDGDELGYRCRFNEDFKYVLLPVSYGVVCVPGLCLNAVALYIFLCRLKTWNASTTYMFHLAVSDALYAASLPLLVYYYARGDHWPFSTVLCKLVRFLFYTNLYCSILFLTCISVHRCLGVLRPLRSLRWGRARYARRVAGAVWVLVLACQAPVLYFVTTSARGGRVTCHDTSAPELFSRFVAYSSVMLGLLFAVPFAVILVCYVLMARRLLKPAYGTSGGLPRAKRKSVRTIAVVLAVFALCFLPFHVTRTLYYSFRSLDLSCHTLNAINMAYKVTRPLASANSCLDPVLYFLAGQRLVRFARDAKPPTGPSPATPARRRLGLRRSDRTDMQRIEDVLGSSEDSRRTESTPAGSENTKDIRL
T1 sequence (P51582 whole entry): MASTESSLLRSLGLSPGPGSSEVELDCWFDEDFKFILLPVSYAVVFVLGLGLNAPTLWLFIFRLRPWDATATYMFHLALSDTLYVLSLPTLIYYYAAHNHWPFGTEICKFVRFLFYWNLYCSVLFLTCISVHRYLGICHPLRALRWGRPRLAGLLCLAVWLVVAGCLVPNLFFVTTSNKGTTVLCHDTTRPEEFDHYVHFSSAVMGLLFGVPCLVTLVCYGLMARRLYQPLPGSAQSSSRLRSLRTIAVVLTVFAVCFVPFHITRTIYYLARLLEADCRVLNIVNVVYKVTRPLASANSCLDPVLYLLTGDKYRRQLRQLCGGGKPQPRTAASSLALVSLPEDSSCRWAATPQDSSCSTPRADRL

Potencies (EC50) at the P2Y4-R (P2Y4-R): n.d.r
Potencies (EC50) at the P2Y2-R (P2Y2-R): n.d.r
SMILES: [BH3-][P+](O)(OCC1OC(n2cc(OC)c(=O)[nH]c2=O)C(O)C1O)OP(=O)(O)O (single isomer, unassigned) [Analogue 13A, 5-methoxyuridine-5′-O-(α-boranodiphosphate)]
